Test results as given in patent US20260200903A1, “PHARMACEUTICAL COMPOSITION FOR AMELIORATING MALIGNANT DISEASES” (KINKI UNIVERSITY, priority 2020, published 2026).

Tests used:
Format in all cases: cell-based
[1] = system: Raji cells; assay: Cell death-inducing effect of rituximab in Raji cells, trypan blue staining; details: cell viability
Text: (§1) Referring to FIG. 7, the horizontal axis is the rituximab concentration (μg/mL) and the vertical axis is the cell viability (%). […] However, the cell viability was clearly higher in RR1 cells, confirming that they are resistant to rituximab.

[2] = system: KMS-28BM cells; assay: Cell death in KMS-28BM cells by each compound in combination with rituximab, trypan blue staining; details: 10 days with 0.1 M9, 0.01 μM M14/M15/M16, 0.5 μM M18/M19, then human serum and rituximab
Description: As a control, compounds untreated KMS-28BM cells were seeded in 75 cm^2 flasks and incubated for 10 days at 37° C. and 5% CO2. KMS-28BM cells were seeded into 75 cm^2 flasks and pre-cultured for 24 h. After incubation, KMS-28BM cells were treated with […], 0.01 μM M14, 0.01 μM M15, 0.01 μM M16, 0.5 μM M18, and 0.5 μM M19 at final concentrations, and incubated for 10 days at 37° C. and 5% CO2. This added amount is a concentration lower than the IC50 of the above compounds for KMS-28BM cells.
After 10 days of incubation, cells were seeded into 96-well plates, human serum and 10 µg/mL rituximab were added, and cell viability was determined by the trypan blue staining.
For controls, only 0.5% DMSO (diluted in PBS) used to dissolve the compounds was added.

[3] = system: RR1 cells; assay: Cell death-inducing effect of rituximab in RR1 cells, trypan blue staining
Text: Raji cells, a burkitt lymphoma cell line, were modified to be rituximab-resistant and named RR1 cells.
as §1

## rituximab: an anti-CD20 monoclonal antibody
[1]
  IC50 of Raji cells to rituximab: 0.121 µg/mL
[2]
  cell death induction compared to control: did not induce cell death
[3]; RR1 cells, cell viability
  IC50 of RR1 cells to rituximab: 98 µg/mL
[3]; ratio of IC50 RR1 / Raji
  resistance of RR1 cells to rituximab relative to Raji cells: approximately 809 times
